The record followed here is patent publication US20250136658A1, “ANTICONVULSANT AND NEUROPROTECTIVE AGENT” (THE UAB RESEARCH FOUNDATION, priority 2022, published 2025).

In data set [1] the target is T1, GST-Nrb331-453 and [35S]-labeled A1R202-326 (A1R-neurabin interaction) (Homo sapiens, UniProt Q9ULJ8).
T1 construct: made in house
T1 sequence (Q9ULJ8 331-453): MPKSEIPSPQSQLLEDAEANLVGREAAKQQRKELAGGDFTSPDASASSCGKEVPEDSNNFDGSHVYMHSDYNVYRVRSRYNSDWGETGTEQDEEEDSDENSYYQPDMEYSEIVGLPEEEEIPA
As to the kind of experiment: In vitro GST competition pull-down. The following applies: peptide 0.1 μg/μl. Type of data set: binding. An excerpt:
FIG. 5A is a competition pull-down assay testing the abilities of A1R 3i loop (3iL) and C-tail (CT) peptides in blocking the interaction between GST-Nrb331-453 and [^35S]-labeled A1R202-326. […] A1R202-326 pulled down by GST-Nrb331-453. Free probe represents 1/10 of the input in each reaction.
FIG. 5B is a competition pull-down assay testing the abilities of A1R 3i loop (3iL) and C-tail (CT) peptides in blocking the interaction between GST-Nrb331-453 and [^35S]-labeled A1R202-326. In the graphical representation, quantitation of the amount of [^35S] A1R202-326 pulled down by GST-Nrb331-453 is shown. Free probe represents 1/10 of the input in each reaction. * represents p<0.05 vs. BSA control by one-way ANOVA Dunnett's multiple comparisons test. N=3/group.
Preparation of GST fusion proteins, synthesis of [^35S]-labeled in vitro translated probes, and pull-down assays were performed as described previously (See, for example, Chen Y, Booth C, Wang H, Wang R X, Terzi D, Zachariou V, et al. Effective Attenuation of Adenosine A1R Signaling by Neurabin Requires Oligomerization of Neurabin. Mol Pharmacol. 2017; 92 (6): 630-9; and Chen Y, Liu Y, Cottingham C, McMahon L, Jiao K, Greengard P, et al. Neurabin scaffolding of adenosine receptor and RGS4 regulates anti-seizure effect of endogenous adenosine. J Neurosci. 2012, 32 (8): 2683-95). […]

In data set [2] the test system is hippocampal CA3-CA1 synapses. Kind of data set: fEPSP recording in acute hippocampal slices. Type of data set: cell-based, mice.
The test system of data set [3] is primary hippocampal neurons. As to the kind of experiment: Glutamate-induced cell death in primary hippocampal neurons. Type of data set: cell-based, mice. The following applies: 100 μM glutamate plus 10 μM R-PIA. The protocol: Primary hippocampal culture was performed as described previously (Chen Y, Liu Y, Cottingham C, McMahon L, Jiao K, Greengard P, et al. Neurabin scaffolding of adenosine receptor and RGS4 regulates anti-seizure effect of endogenous adenosine. J Neurosci. 2012, 32 (8): 2683-95). […] In brief, hippocampal neurons were cultured in 24-well plates for 13-14 days in vitro and treated with (1) vehicle, (2) 100 μM glutamate alone, (3) 100 μM glutamate plus 10 μM R-PIA, (4) 100 μM glutamate, 10 μM R-PIA, plus 30 μM LY294002, for 30 min at 37° C. Neurons were then washed twice, and incubated with regular growth medium at 37° C. for an additional 24 hrs. Neurons were stained with 4 μM calcein-AM and 4 μM EthD-1 in DPBS and mounted for imaging under a fluorescence microscope.

For data set [4], the system named is Akt phosphorylation at Thr 308. Kind of data set: A1R-mediated Akt activation in primary hippocampal neurons (Western blot). Type of data set: cell-based, mice. Here is the method: Primary hippocampal neurons derived from WT or neurabin deficiency (Ppp1r9a^−/−) mice were treated with R-PIA at the indicated concentrations. Representative blots of phospho-Akt (pAkt, Thr308) are shown.
Primary hippocampal neurons derived from WT or neurabin deficiency (Ppp1r9a^−/−) mice were treated with R-PIA at the indicated concentrations. Quantitation of phospho-Akt (pAkt, Thr308) is shown. *** represents p<0.001 by two-way ANOVA. N=4/group.
WT and Ppp1r9a^−/− neurons were stimulated with 1 μM R-PIA for the indicated time durations. Representative blots of pAkt are shown.
WT and Ppp1r9a^−/− neurons were stimulated with 1 μM R-PIA for the indicated time durations. Quantitation of pAkt is shown. * represents p<0.05; ** represents p<0.01; **** represents p<0.0001 by two-way ANOVA for multiple comparisons. N=4/group. Data are shown as mean±SEM.
In general terms: A western blot detects proteins with antibodies after separation by electrophoresis.

The subject of another data set is PTZ-induced seizures. As to the kind of experiment: PTZ-induced seizure in WT and neurabin null mice. Type of data set: in vivo. The protocol:
(§1) Induction and evaluation of seizure were performed as described previously (See, for example, Chen Y, Liu Y, Cottingham C, McMahon L, Jiao K, Greengard P, et al. Neurabin scaffolding of adenosine receptor and RGS4 regulates anti-seizure effect of endogenous adenosine. J Neurosci. 2012, 32 (8): 2683-95). Ten to twelve week-old male mice were injected (i.p.) with kainate (Sigma) at 20 or 25 mg/kg (dissolved in saline), together with or without DPCPX (Sigma, 0.5 mg/kg in saline) or yohimbine (Sigma, 0.5 mg/kg in saline). Seizure severity was scored by trained observers blind to genotype and/or treatment. The severity of seizure behaviors was scored on a scale of 0 to 7, with 0 representing normal behavior and 7 representing death (see, for example, Yang D D, Kuan C Y, Whitmarsh A J, Rincon M, Zheng T S, Davis R J, et al. Absence of excitotoxicity-induced apoptosis in the hippocampus of mice lacking the Jnk3 gene. Nature. 1997, 389 (6653): 865-70; and Cottingham C, Chen Y, Jiao K, and Wang Q. The antidepressant desipramine is an arrestin-biased ligand at the alpha (2A)-adrenergic receptor driving receptor down-regulation in vitro and in vivo. J Biol Chem. 2011, 286 (41): 36063-75). To induce seizures with pentylenetetrazole (PTZ), mice were injected (i.p.) with PTZ at 40 mg/kg (dissolved in saline), with or without 8-Cyclopentyl-1,3-dipropylxanthine (DPCPX). Seizure severity was scored every 4 min for 30 min.

Data set [5] deals with kainate-induced seizures. As to the kind of experiment: Kainate-induced seizure in WT and Rgs4-/- mice. Type of data set: in vivo. The protocol: as §1, with “To induce seizures with pentylenetetrazole (PTZ), mice were injected (i.p.) with PTZ at 40 mg/kg (dissolved in saline), with or without 8-Cyclopentyl-1,3-dipropylxanthine (DPCPX).” left out
Data set [6] deals with kainate-induced seizures. As to the kind of experiment: Kainate-induced seizure in mice given peptide (icv or intranasal). Type of data set: in vivo. The protocol: as §1, with “To induce seizures with pentylenetetrazole (PTZ), mice were injected (i.p.) with PTZ at 40 mg/kg (dissolved in saline), with or without 8-Cyclopentyl-1,3-dipropylxanthine (DPCPX).” left out, “min. […]” for “min.”

Data set [7] deals with spontaneous epileptic spikes in APP/PS1 mice. As to the kind of experiment: EEG recording of spontaneous epileptic activity in APP/PS1 mice. The following applies: intranasal peptide plus i.p. DPCPX. Type of data set: in vivo. Here is the method: Implantation of electrodes for EEG recordings was performed under isoflurane anesthesia (4.5% for induction, approximately 2% for maintenance). In brief, 1 mm stainless steel electrodes (P1 Technologies, Roanoke, VA) were implanted into the primary somatosensory cortex at 1.8, 0.02, 1 (AP, ML, DV), and reference electrodes anterior to the bregma were implanted subdurally through small holes drilled in the skull. These electrodes were held in place with Dental cement kit (Stoelting), C&B Metabond Quick Adhesive Cement System (Parkell). The ground electrode was sutured in the cervical paraspinous area. […] EEG activity was recorded for 20 hrs using Biopac Systems amplifiers (Biopac Systems EEG100C) and AcqKnowledge 4.2 EEG Acquisition and analyzed with the Reader Software (Biopac Systems).
A total of 150 hrs of data was analyzed, 54 hrs for nTg mice and 96 hrs for APP/PS1 transgenic mice. Six hrs of recording were analyzed for each animal. […] When p-operator algorithm detected a spike, all signals were visually inspected to include in the analysis only those that were true positives in order to avoid non-epileptic artifacts caused by electrical noise (e.g., grooming) during spike selection. Spectral content of EEG signals were calculated using short-time Fourier transform (FFT).

Regarding “3i loop peptide: peptide carrying the sequence of the A1R 3i loop (aa202-235) (EVFYLIRKQLNKKVSASSGDPQKYYGKELKIAKS; UniProt P30542 202-235, looked up, fragment)”, the “direct interaction of A1R (aa202-326) with Nrb331-453” value in data set [1] is “no effect”.
As for `CC(Cc1ccccc1)Nc1ncnc2c1ncn2[C@@H]1O[C@H](CO)[C@@H](O)[C@H]1O` (single isomer, unassigned; (-)) [R-PIA, (−)-N6-(2-Phenylisopropyl) adenosine], the “inhibition of baseline transmission” value in data set [2] (WT mice slices, 100 nM) was “about 75%”. Also, in data set [2] (WT mice slices, 10, 30, 100 nM), the “inhibition of fEPSP” value is reported as “dose-dependently inhibited”. Besides, the “inhibition of fEPSP vs WT slices” value in data set [2] (slices from Ppp1r9a-/- or Rgs4-/- mice, same concentration (10 nM, FIG. 2E-F)) is “significantly higher level of inhibition”. Also, the “effect on glutamate-induced neuronal death” value in data set [3] is “protective effect”. Besides, in data set [4] (WT neurons), the “Akt phosphorylation at Thr 308” value is given as “dose-dependent increase”. Also, the “Akt activation over time” value in data set [4] (WT neurons, 1 μM R-PIA) was “desensitized after 30 min stimulation”. The “phospho-Akt levels at 30 min” value in data set [4] (neurons lacking neurabin, 1 μM R-PIA) is recorded as “no apparent reduction”. In addition, the “Akt phosphorylation vs WT neurons” value in data set [4] (neurons lacking neurabin, same dose) was “significantly higher level of Akt phosphorylation”.
Consider `CCCn1c(=O)c2[nH]c(C3CCCC3)nc2n(CCC)c1=O` [DPCPX, 8-Cyclopentyl-1,3-dipropylxanthine], for which, in the data set on PTZ-induced seizures (WT and neurabin null mice, vs PTZ alone), the “PTZ-induced seizure severity on co-treatment with DPCPX” value is “continued to progress to a much more severe level”. The “death after combined treatment with PTZ and DPCPX” value with PTZ-induced seizures (both genotypes (WT, Ppp1r9a-/-)) is “more than 55%”. For the same compound, the “effect of A1R blockade on seizure severity and mortality rate” value in the data set on kainate-induced seizures [5] (Rgs4-/- mice, kainate plus DPCPX, to a level similar to WT) was “increased the seizure severity and mortality rate”. Further, the “anti-seizure effect of A1R-CT on co-treatment with DPCPX” value in the data set on kainate-induced seizures [6] (icv peptide) is “no longer observed”. Besides, in the data set on kainate-induced seizures [6] (intranasal peptide), the “anti-seizure effect of TAT-A1R-CT peptide on co-treatment with DPCPX” value is given as “abolished”. Also, the “effect of TAT-A1R-CT on epileptic activities with DPCPX” value in data set [7] is given as “failed to reduce epileptic activities”.
Regarding `C1CCc2nnnn2CC1` [PTZ, pentylenetetrazole], the “PTZ-induced lethality within 40 minutes” value with PTZ-induced seizures (WT mice, PTZ alone) is reported as “About 10%”.
`C=C(C)[C@H]1CN[C@H](C(=O)O)[C@H]1CC(=O)O` [kainate]: in the data set with kainate-induced seizures [5] (WT mice, kainate 20 mg/kg), the mortality after kainate result is recorded as “over 40%”.
“A1R-CT: peptide carrying the sequence of the A1R C-tail (aa293-326), without TAT fusion (QKFRVTFLKIWNDHFRCQPAPPIDEDLPEERPDD; UniProt P30542 293-326, looked up, fragment)”: in data set [1], the “direct interaction of A1R (aa202-326) with Nrb331-453” value is “markedly reduced”.
